pIC50: −log10 of the molar value. In brackets after ≈: the same amount, converted by molar mass.
Experiments:
Calf thymus DNA = test: Displacement of methyl green from calf thymus DNA assessed as DNA intercalation measured after 24 hrs; format: nucleic-acid assay, Bos taurus
HL-60 = test: Antiproliferative activity against human HL-60 cells; format: functional, cell-based
[1] = target: T1, DNA topoisomerase 2-alpha (Homo sapiens, UniProt P11388); test: Inhibition of human DNA topoisomerase 2alpha
HNO 97 cell line [2] = test: Antioxidant activity against human HNO 97 cell line assessed as increase in GSH level measured after 48 hrs by Ellmans method relative to control; format: functional
MDA-MB-231 [3] = test: Growth inhibition of human MDA-MB-231 cells assessed as reduction in cell viability at 100 ug/ml by SRB colorimetric assay relative to control; format: functional; conditions: read-out: GI
A-375 = test: Growth inhibition of human A-375 cells assessed as reduction in cell viability at 100 ug/ml by SRB colorimetric assay relative to control; format: functional; conditions: read-out: GI
[4] = Upregulation of p53 expression in human HNO 97 cell line assessed as fold change by sandwich ELISA analysis; format: functional
[5] = Downregulation of IL-6 expression in human HNO 97 cell line assessed as fold change by sandwich ELISA analysis; format: functional
HNO 97 cell line [6] = test: Induction of cell cycle arrest in human HNO 97 cell line assessed as increase in cell level at G2-M phase by flow cytometry analysis (reference value: 0.66%); format: functional
Huh-7 = test: Growth inhibition of human Huh-7 cells assessed as reduction in cell viability at 100 ug/ml by SRB colorimetric assay relative to control; format: functional; conditions: read-out: GI
[7] = target: DNA topoisomerase 2-beta (Homo sapiens) (UniProt Q02880); test: Inhibition of human DNA topoisomerase 2-beta by ELISA method relative to control; conditions: concentration not given here
HNO 97 cell line [8] = test: Antioxidant activity against human HNO 97 cell line assessed as NO level measured after 48 hrs relative to control; format: functional
BT-474 = test: Growth inhibition of human BT-474 cells assessed as reduction in cell viability at 100 ug/ml by SRB colorimetric assay relative to control; format: functional; conditions: read-out: GI
[9] = Downregulation of BCL2 expression in human HNO 97 cell line assessed as fold change by sandwich ELISA analysis; format: functional
[10] = Growth inhibition of human Oral epithelial cell assessed as reduction in cell viability at 100 ug/ml by SRB colorimetric assay relative to control; format: toxicity, cell-based; conditions: oral epithelial cells, at 100 µg/mL, read-out: GI
HCT-116 = test: Growth inhibition of human HCT-116 cells assessed as reduction in cell viability at 100 ug/ml by SRB colorimetric assay relative to control; format: functional; conditions: read-out: GI
NCI-H460 = test: Growth inhibition of human NCI-H460 cells assessed as reduction in cell viability at 100 ug/ml by SRB colorimetric assay relative to control; format: functional; conditions: read-out: GI
MG-63 = test: Growth inhibition of human MG-63 cells assessed as reduction in cell viability at 100 ug/ml by SRB colorimetric assay relative to control; format: functional; conditions: read-out: GI
MCF7 = test: Growth inhibition of human MCF7 cells assessed as reduction in cell viability at 100 ug/ml by SRB colorimetric assay relative to control; format: functional; conditions: read-out: GI
HNO 97 cell line [11] = test: Growth inhibition of human HNO 97 cell line assessed as reduction in cell viability at 100 ug/ml by SRB colorimetric assay relative to control; format: functional; conditions: read-out: GI
PC-3 = test: Growth inhibition of human PC-3 cells assessed as reduction in cell viability at 100 ug/ml by SRB colorimetric assay relative to control; format: functional; conditions: read-out: GI
HNO 97 cell line [12] = test: Induction of apoptosis in human HNO 97 cell line assessed as increase in late apoptotic cells by Annexin-V/PI staining based analysis (reference value: 0.12%); format: functional
[13] = Upregulation of BAX expression in human HNO 97 cell line assessed as fold change by sandwich ELISA analysis; format: functional
HNO 97 cell line [14] = test: Antioxidant activity against human HNO 97 cell line assessed as MDA level measured after 48 hrs relative to control; format: functional
A549 = test: Growth inhibition of human A549 cells assessed as reduction in cell viability at 100 ug/ml by SRB colorimetric assay relative to control; format: functional; conditions: read-out: GI
HNO 97 cell line [15] = test: Induction of apoptosis in human HNO 97 cell line assessed as increase in early apoptotic cells by Annexin-V/PI staining based analysis (reference value: 0.23%); format: functional
Caco-2 = test: Growth inhibition of human Caco-2 cells assessed as reduction in cell viability at 100 ug/ml by SRB colorimetric assay relative to control; format: functional; conditions: read-out: GI
HNO 97 cell line [16] = test: Growth inhibition of human HNO 97 cell line assessed as reduction in cell viability by SRB colorimetric assay; format: functional, cell-based
MDA-MB-231 [17] = test: Growth inhibition of human MDA-MB-231 cell line assessed as reduction in cell viability by SRB colorimetric assay; format: functional, cell-based
HNO 97 cell line [18] = test: Induction of cell cycle arrest in human HNO 97 cell line assessed as increase in cell level at S phase by flow cytometry analysis (reference value: 23.37%); format: functional
HepG2 [19] = test: Growth inhibition of human HepG2 cells assessed as reduction in cell viability at 100 ug/ml by SRB colorimetric assay relative to control; format: functional; conditions: read-out: GI
HepG2 [20] = test: Growth inhibition of human HepG2 cell line assessed as reduction in cell viability by SRB colorimetric assay; format: functional, cell-based
[21] = target: T1, DNA topoisomerase 2-alpha; test: Inhibition of human DNA topoisomerase 2alpha using supercoiled pHot1 DNA as substrate incubated for 30 mins

Sequence of DNA topoisomerase 2-beta (Homo sapiens) (Q02880 whole entry): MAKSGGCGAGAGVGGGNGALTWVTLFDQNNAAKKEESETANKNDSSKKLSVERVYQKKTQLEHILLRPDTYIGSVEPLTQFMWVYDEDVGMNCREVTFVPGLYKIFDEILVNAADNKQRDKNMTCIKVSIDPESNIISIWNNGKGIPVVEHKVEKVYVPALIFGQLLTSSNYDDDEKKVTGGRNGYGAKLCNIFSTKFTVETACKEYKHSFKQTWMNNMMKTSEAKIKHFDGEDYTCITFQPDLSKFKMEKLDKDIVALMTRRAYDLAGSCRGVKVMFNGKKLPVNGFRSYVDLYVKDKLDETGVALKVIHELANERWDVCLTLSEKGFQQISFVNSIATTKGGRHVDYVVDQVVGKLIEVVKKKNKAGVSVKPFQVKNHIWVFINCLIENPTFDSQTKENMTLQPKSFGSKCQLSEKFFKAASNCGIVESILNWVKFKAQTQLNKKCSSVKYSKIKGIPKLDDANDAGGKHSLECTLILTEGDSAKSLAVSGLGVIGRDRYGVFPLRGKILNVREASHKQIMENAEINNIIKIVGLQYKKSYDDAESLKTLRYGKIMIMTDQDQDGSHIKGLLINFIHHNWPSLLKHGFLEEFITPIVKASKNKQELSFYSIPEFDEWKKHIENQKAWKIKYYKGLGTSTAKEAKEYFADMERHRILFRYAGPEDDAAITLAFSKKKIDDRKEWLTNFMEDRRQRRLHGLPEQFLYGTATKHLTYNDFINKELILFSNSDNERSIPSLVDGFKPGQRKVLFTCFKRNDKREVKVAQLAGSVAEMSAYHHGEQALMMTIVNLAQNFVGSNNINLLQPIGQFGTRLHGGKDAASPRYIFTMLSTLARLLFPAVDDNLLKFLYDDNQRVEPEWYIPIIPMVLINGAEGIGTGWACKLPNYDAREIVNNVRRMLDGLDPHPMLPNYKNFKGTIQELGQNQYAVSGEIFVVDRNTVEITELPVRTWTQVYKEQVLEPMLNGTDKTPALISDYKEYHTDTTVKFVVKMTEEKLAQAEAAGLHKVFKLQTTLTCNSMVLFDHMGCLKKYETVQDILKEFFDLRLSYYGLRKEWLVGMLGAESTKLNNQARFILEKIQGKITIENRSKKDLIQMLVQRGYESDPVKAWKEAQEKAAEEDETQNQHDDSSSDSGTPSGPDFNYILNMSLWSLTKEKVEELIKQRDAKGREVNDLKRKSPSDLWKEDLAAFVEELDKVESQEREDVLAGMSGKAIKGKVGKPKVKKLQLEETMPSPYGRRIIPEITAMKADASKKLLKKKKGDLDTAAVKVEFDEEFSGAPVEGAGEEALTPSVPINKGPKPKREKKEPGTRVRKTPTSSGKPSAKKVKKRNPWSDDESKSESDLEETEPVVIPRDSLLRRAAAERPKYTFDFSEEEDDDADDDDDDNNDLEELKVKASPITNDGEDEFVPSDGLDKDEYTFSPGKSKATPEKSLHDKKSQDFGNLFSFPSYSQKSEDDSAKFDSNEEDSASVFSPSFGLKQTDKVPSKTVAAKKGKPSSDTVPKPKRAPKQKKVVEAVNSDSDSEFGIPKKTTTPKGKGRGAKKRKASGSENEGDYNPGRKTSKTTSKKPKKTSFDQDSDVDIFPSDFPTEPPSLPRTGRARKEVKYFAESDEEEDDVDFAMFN
T1 sequence (P11388 whole entry): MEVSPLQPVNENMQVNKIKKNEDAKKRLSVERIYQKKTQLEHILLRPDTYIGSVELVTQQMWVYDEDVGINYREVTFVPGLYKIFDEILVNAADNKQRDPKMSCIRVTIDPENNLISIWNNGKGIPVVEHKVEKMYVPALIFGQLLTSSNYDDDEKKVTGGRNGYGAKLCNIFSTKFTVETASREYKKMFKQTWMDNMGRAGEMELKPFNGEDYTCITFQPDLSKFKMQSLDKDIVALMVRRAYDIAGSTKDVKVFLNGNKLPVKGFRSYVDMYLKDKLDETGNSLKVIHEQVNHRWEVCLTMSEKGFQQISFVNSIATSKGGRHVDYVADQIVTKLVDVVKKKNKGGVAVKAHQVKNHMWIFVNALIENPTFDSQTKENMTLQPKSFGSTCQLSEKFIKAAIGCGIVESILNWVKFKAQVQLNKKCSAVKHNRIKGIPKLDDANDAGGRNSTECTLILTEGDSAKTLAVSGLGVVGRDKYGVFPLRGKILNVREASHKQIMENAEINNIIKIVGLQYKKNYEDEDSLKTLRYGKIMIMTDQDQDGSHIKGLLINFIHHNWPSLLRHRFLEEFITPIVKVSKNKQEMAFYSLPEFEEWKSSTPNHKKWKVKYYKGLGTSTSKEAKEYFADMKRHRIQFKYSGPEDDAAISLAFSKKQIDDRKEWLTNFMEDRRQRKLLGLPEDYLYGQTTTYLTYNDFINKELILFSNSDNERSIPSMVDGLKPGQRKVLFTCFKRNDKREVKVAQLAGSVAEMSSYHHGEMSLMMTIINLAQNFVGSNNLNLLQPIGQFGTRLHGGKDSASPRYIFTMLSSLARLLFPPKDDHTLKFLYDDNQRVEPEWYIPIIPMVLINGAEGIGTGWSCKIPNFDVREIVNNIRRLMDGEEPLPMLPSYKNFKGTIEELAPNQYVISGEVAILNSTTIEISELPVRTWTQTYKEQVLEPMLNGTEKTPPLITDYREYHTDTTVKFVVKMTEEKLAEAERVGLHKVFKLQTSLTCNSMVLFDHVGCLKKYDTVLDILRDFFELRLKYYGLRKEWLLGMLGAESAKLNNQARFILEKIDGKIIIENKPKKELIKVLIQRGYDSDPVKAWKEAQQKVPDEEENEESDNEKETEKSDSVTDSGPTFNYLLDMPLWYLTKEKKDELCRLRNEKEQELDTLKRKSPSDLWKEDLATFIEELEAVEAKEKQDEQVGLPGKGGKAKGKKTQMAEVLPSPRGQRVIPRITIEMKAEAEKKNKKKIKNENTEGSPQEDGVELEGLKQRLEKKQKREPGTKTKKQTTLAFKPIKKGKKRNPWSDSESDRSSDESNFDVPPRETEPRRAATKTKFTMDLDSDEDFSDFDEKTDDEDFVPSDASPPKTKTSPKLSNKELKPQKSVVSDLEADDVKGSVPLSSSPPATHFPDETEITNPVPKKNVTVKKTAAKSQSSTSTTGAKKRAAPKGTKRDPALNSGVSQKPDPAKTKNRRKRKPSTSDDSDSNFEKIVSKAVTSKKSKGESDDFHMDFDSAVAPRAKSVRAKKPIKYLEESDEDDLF

SMILES	inhibition of growth at 100 µg/mL (MDA-MB-231 [3]) [%]	inhibition of growth at 100 µg/mL (A-375) [%]	inhibition of growth at 100 µg/mL (Huh-7) [%]	inhibition [7] [%]	inhibition of growth at 100 µg/mL (BT-474) [%]	inhibition at 100 ug/ml [10] [%]	inhibition of growth at 100 µg/mL (HCT-116) [%]	inhibition of growth at 100 µg/mL (NCI-H460) [%]	inhibition of growth at 100 µg/mL (MG-63) [%]	inhibition of growth at 100 µg/mL (MCF7) [%]	inhibition of growth at 100 µg/mL (HNO 97 cell line [11]) [%]	inhibition of growth at 100 µg/mL (PC-3) [%]	inhibition of growth at 100 µg/mL (A549) [%]	inhibition of growth at 100 µg/mL (Caco-2) [%]	IC50 (HNO 97 cell line [16]) [µg/mL]	IC50 (MDA-MB-231 [17]) [µg/mL]	inhibition of growth at 100 µg/mL (HepG2 [19]) [%]	IC50 (HepG2 [20]) [µg/mL]	other results
O=C(NNC(=O)c1ccc(Nc2nc3ccccc3n3cnnc23)cc1)NC1CCCCC1	–	–	–	–	–	–	–	–	–	–	–	–	–	–	–	–	–	–	pIC50 (Calf thymus DNA): 4.60
O=C(N/N=C/c1ccncc1)c1cccc2c(=O)c3ccccc3[nH]c12	–	–	–	–	–	–	–	–	–	–	–	–	–	–	–	–	–	–	pIC50 (HL-60): 6.32; pIC50 [1]: 5.65
NC1=Nc2nc3ccccc3n2C(c2ccc(Cl)cc2Cl)N1 (centres undefined)	71.5	67.2	73.6	87.9	52.4	62.8	51.8	71.8	66.7	72.6	82.6	74.3	69	63.4	4 (≈ 12 µM)	10 (≈ 30.1 µM)	76.5	9 (≈ 27.1 µM)	Activity (HNO 97 cell line [2]): 177.01%; fold change (FC) [4]: 2.32; fold change (FC) [5]: 0.64; Activity (HNO 97 cell line [6]): 27.94%; Activity (HNO 97 cell line [8]): 56.5%; fold change (FC) [9]: 0.15; Activity (HNO 97 cell line [12]): 1.42%; fold change (FC) [13]: 2.46; Activity (HNO 97 cell line [14]): 46.33%; Activity (HNO 97 cell line [15]): 4.99%; Activity (HNO 97 cell line [18]): 46.4%
CCCc1nnc2c3ccccc3c(N/N=C/c3ccc([N+](=O)[O-])cc3)nn12	–	–	–	–	–	–	–	–	–	–	–	–	–	–	–	–	–	–	pIC50 (Calf thymus DNA): 4.58; pIC50 [21]: 5.15
NC1=Nc2nc3ccccc3n2C(c2ccc(Cl)c(Cl)c2)N1 (centres undefined)	75	63	72.5	81.7	57.7	41.6	51.1	73.4	66.4	62	78	75.5	67.5	50.7	3 (≈ 9.03 µM)	4 (≈ 12 µM)	63.6	4.8 (≈ 14.4 µM)	Activity (HNO 97 cell line [2]): 189.32%; fold change (FC) [4]: 2.16; fold change (FC) [5]: 0.67; Activity (HNO 97 cell line [6]): 4.99%; Activity (HNO 97 cell line [8]): 62.06%; fold change (FC) [9]: 0.24; Activity (HNO 97 cell line [12]): 0.9%; fold change (FC) [13]: 2.39; Activity (HNO 97 cell line [14]): 51.93%; Activity (HNO 97 cell line [15]): 9.27%; Activity (HNO 97 cell line [18]): 58.07%
COc1cccc2c1C(=O)c1c(O)c3c(c(O)c1C2=O)C[C@@](O)(C(=O)CO)C[C@@H]3O[C@H]1C[C@H](N)[C@H](O)[C@H](C)O1 [DOXORUBICIN]	78.2	64.1	74.8	86.4	44.7	70.4	71.3	73.6	69.9	69	80.3	68	49	80.8	9 (≈ 16.6 µM)	8.6 (≈ 15.8 µM)	59.3	4.6 (≈ 8.46 µM)	–
CC(C)c1ccc(C2N=C(N)Nc3nc4ccccc4n32)cc1 (centres undefined)	78.6	58.1	54.7	77.5	61.7	7.69	55.6	65.6	58	55.4	75.7	71.7	49	59.2	–	–	63.7	–	–
NC1=Nc2nc3ccccc3n2C(c2cccc(Cl)c2Cl)N1 (centres undefined)	75.1	68.7	67	–	60.4	38.4	59.6	73.1	63.2	63.6	78.6	71.5	67.8	61.1	–	–	72.5	–	–
NC1=NC(c2ccccc2)n2c(nc3ccccc32)N1 (centres undefined)	68.2	63.4	68.1	–	51.4	24.4	61.1	65.3	56	60.2	78.1	72.7	59.1	61.7	–	–	66.6	–	–
